“And” between values parts separate entries of the source, which are not always exact repeats. Equal entries are not always repeated. Records with an inconclusive call do not appear.
Tested on: nude mice, LX-1 lung xenograft intrarenal, tumor weight T/C
Experiment: NCI In Vivo Anticancer Drug Screen. Data for tumor model Human Lung LX-1 Xenograft (intrarenal inoculation) in NU/NU Swiss (nude) mice
Conditions: endpoint: mean tumor weight change, higher = larger tumour
Protocol: The antitumor activity of compounds was measured in mice bearing transplantable tumors. Survival or tumor size were measured and the results are expressed as the measurement made in the treated group (T) divided by the measurement made in the vehicle treated control group (C). The tumor model used in this assay is Human Lung LX-1 Xenograft (intrarenal inoculation) in NU/NU Swiss (nude) mice

[1] = dose: 100.0 mg/kg/injection, schedule: Q04DX003 (sc), vehicle: saline with Tween-80
[2] = dose: 200.0 mg/kg/injection, schedule: Q04DX003 (sc), vehicle: saline with Tween-80
[3] = dose: 400.0 mg/kg/injection, schedule: Q04DX003 (sc), vehicle: saline with Tween-80
[4] = dose: 800.0 mg/kg/injection, schedule: Q04DX003 (sc), vehicle: saline with Tween-80
[5] = dose: 1.0 mg/kg/injection, schedule: Q01DX010 (sc), vehicle: saline
[6] = dose: 2.0 mg/kg/injection, schedule: Q01DX010 (sc), vehicle: saline
[7] = dose: 300.0 mg/kg/injection, schedule: Q04DX003 (sc), vehicle: saline with Tween-80
[8] = dose: 600.0 mg/kg/injection, schedule: Q04DX003 (sc), vehicle: saline with Tween-80
[9] = dose: 1200.0 mg/kg/injection, schedule: Q04DX003 (sc), vehicle: saline with Tween-80
[10] = dose: 50.0 mg/kg/injection, schedule: Q01DX010 (sc), vehicle: saline
[11] = dose: 100.0 mg/kg/injection, schedule: Q01DX010 (sc), vehicle: saline

## COc1cc(C(C)(C)C)cc(OC)c1C(O)(c1c(OC)cc(C(C)(C)C)cc1OC)c1c(OC)cc(C(C)(C)C)cc1OC
[1]
  T/C: 91 % of control
[2]
  T/C: 68 % of control
[3]
  T/C: 98 % of control
[4]
  T/C: 86 % of control

## OC1CCCC2CCCNC12 (stereo unspecified)
dose: 37.5 mg/kg/injection, schedule: Q04DX003 (sc), vehicle: saline with Tween-80
  T/C: 81 % of control
dose: 75.0 mg/kg/injection, schedule: Q04DX003 (sc), vehicle: saline with Tween-80
  T/C: 93 % of control
dose: 150.0 mg/kg/injection, schedule: Q04DX003 (sc), vehicle: saline with Tween-80
  T/C: 75 % of control

## COc1cccc2c1C(=O)c1c(O)c3c(c(O)c1C2=O)C[C@@](O)(/C(C)=N/NC(=O)c1ccc(Cl)cc1)C[C@@H]3OC1CC(N)C(O)C(C)O1 (stereo partly specified)
dose: 4.0 mg/kg/injection, schedule: Q01DX010 (sc), vehicle: water
  T/C: 156 % of control
dose: 6.0 mg/kg/injection, schedule: Q04DX003 (sc), vehicle: water
  T/C: 64 % of control
dose: 8.0 mg/kg/injection, schedule: Q01DX010 (sc), vehicle: water
  T/C: 42 % of control
dose: 16.0 mg/kg/injection, schedule: Q01DX010 (sc), vehicle: water
  T/C: 43 % of control
dose: 96.0 mg/kg/injection, schedule: Q04DX003 (sc), vehicle: water
  T/C: 20 % of control and 33 % of control

## C[N+](C)(C)c1ncnc2c1ncn2C1CCCO1 (stereo unspecified)
dose: 0.25 mg/kg/injection, schedule: Q01DX010 (sc), vehicle: saline
  T/C: 65 % of control
[5]
  T/C: 106 % of control
[6]
  T/C: 94 % of control
dose: 12.5 mg/kg/injection, schedule: Q01DX010 (sc), vehicle: saline
  T/C: 176 % of control
dose: 25.0 mg/kg/injection, schedule: Q01DX010 (sc), vehicle: saline
  T/C: 120 % of control

## CCC1=C2C(=O)c3ccccc3C2=C(C)S(=O)(=O)O1
[7]
  T/C: 66 % of control
[8]
  T/C: 70 % of control
[9]
  T/C: 89 % of control
dose: 2400.0 mg/kg/injection, schedule: Q04DX003 (sc), vehicle: saline with Tween-80
  T/C: 86 % of control

## CC(=O)Nc1ccc(C(=O)C=O)cc1
dose: 25.0 mg/kg/injection, schedule: Q01DX010 (sc), vehicle: saline with Tween-80
  T/C: 69 % of control
dose: 50.0 mg/kg/injection, schedule: Q01DX010 (sc), vehicle: saline with Tween-80
  T/C: 103 % of control
dose: 100.0 mg/kg/injection, schedule: Q01DX010 (sc), vehicle: saline with Tween-80
  T/C: 35 % of control
dose: 200.0 mg/kg/injection, schedule: Q01DX010 (sc), vehicle: saline with Tween-80
  T/C: 45 % of control

## CC(C)=CCNc1ncnc2c1ncn2C1OC(CO)C(O)C1O (stereo unspecified)
dose: 200.0 mg/kg/injection, schedule: Q04DX003 (sc), vehicle: suspension in saline
  T/C: 93 % of control
dose: 400.0 mg/kg/injection, schedule: Q04DX003 (sc), vehicle: suspension in saline
  T/C: 112 % of control
dose: 800.0 mg/kg/injection, schedule: Q04DX003 (sc), vehicle: suspension in saline
  T/C: 88 % of control

## C/C=C/C=C1/OC(C)=C(C(C)=O)C1=O
[1]
  T/C: 107 % of control
[2]
  T/C: 97 % of control
[3]
  T/C: 110 % of control
[4]
  T/C: 92 % of control

## O=C(NO)c1cc(O)c(O)c(O)c1
dose: 200.0 mg/kg/injection, schedule: Q04DX003 (sc), vehicle: distilled water + Tween-80
  T/C: 66 % of control
dose: 400.0 mg/kg/injection, schedule: Q04DX003 (sc), vehicle: distilled water + Tween-80
  T/C: 87 % of control
dose: 800.0 mg/kg/injection, schedule: Q04DX003 (sc), vehicle: distilled water + Tween-80
  T/C: 100 % of control
dose: 1600.0 mg/kg/injection, schedule: Q04DX003 (sc), vehicle: distilled water + Tween-80
  T/C: 90 % of control

## NC(=S)N/N=C/c1ccc(OC(=O)COc2ccc(Cl)cc2)cn1
[7]
  T/C: 54 % of control
[8]
  T/C: 44 % of control
[9]
  T/C: 23 % of control

## COc1cc(NS(C)(=O)=O)ccc1Nc1c2ccccc2nc2ccccc12
dose: 0.47 mg/kg/injection, schedule: Q01DX010 (sc), vehicle: clinical formulation
  T/C: 151 % of control
dose: 0.75 mg/kg/injection, schedule: Q01DX010 (sc), vehicle: other
  T/C: 99 % of control
dose: 0.94 mg/kg/injection, schedule: Q01DX010 (sc), vehicle: lactic acid
  T/C: 84 % of control
dose: 1.5 mg/kg/injection, schedule: Q01DX010 (sc), vehicle: other
  T/C: 88 % of control
dose: 1.88 mg/kg/injection, schedule: Q01DX010 (sc), vehicle: clinical formulation
  T/C: 110 % of control
dose: 1.88 mg/kg/injection, schedule: Q01DX010 (sc), vehicle: lactic acid
  T/C: 109 % of control
dose: 3.0 mg/kg/injection, schedule: Q01DX010 (sc), vehicle: other
  T/C: 64 % of control
dose: 3.75 mg/kg/injection, schedule: Q01DX010 (sc), vehicle: lactic acid
  T/C: 46 % of control

## CC1CN1P1(N2CC2C)=NP(N2CC2C)(N2CC2C)=NP(N2CC2C)(N2CC2C)=N1 (stereo unspecified)
[10]
  T/C: 47 % of control and 60 % of control and 67 % of control
[11]
  T/C: 14 % of control and 15 % of control and 25 % of control

## O=c1n(CC2CO2)c(=O)n(CC2CO2)n1CC1CO1 (stereo unspecified)
dose: 12.5 mg/kg/injection, schedule: Q04DX003 (sc), vehicle: saline
  T/C: 74 % of control
dose: 25.0 mg/kg/injection, schedule: Q04DX003 (sc), vehicle: saline
  T/C: 77 % of control

## C[Si](C)(CCl)N[Si](C)(C)CCl
[9]
  T/C: 81 % of control

## CC1=CC(=NN=c2cc(C)n([O-])c(C)c2)C=C(C)[N+]1=O
dose: 300.0 mg/kg/injection, schedule: Q04DX003 (sc), vehicle: suspension in saline
  T/C: 96 % of control
dose: 1200.0 mg/kg/injection, schedule: Q04DX003 (sc), vehicle: suspension in saline
  T/C: 77 % of control

## C(CSC1=NCCN1)CSC1=NCCN1
[10]
  T/C: 156 % of control
[11]
  T/C: 81 % of control

## CC1=NN(c2cccc(S(=O)(=O)O)c2)C(=O)C1N=Nc1cc(Cl)cc(S(=O)(=O)O)c1O.CC1=NN(c2cccc(S(=O)(=O)O)c2)C(=O)C1N=Nc1cc(Cl)cc(S(=O)(=O)O)c1O.[Cr] (stereo unspecified)
dose: 150.0 mg/kg/injection, schedule: Q04DX003 (sc), vehicle: saline
  T/C: 171 % of control
dose: 300.0 mg/kg/injection, schedule: Q04DX003 (sc), vehicle: saline
  T/C: 152 % of control
dose: 600.0 mg/kg/injection, schedule: Q04DX003 (sc), vehicle: saline
  T/C: 110 % of control

## CC1OC(OC2CC(O)(C(=O)CO)Cc3c(O)c4c(c(O)c32)C(=O)c2ccccc2C4=O)CC(N)C1O (stereo unspecified)
dose: 0.5 mg/kg/injection, schedule: Q01DX010 (sc), vehicle: water
  T/C: 57 % of control
dose: 1.0 mg/kg/injection, schedule: Q01DX010 (sc), vehicle: water
  T/C: 83 % of control

## N[C@H](C(=O)O)[C@@H]1CC(Cl)=NO1
[6]
  T/C: 16 % of control
dose: 2.0 mg/kg/injection, schedule: Q01DX010 (sc), vehicle: suspension in saline
  T/C: 30 % of control
dose: 4.0 mg/kg/injection, schedule: Q01DX010 (sc), vehicle: suspension in saline
  T/C: 33 % of control
dose: 8.0 mg/kg/injection, schedule: Q01DX010 (sc), vehicle: suspension in saline
  T/C: 45 % of control
dose: 16.0 mg/kg/injection, schedule: Q01DX010 (sc), vehicle: suspension in saline
  T/C: 15 % of control

## CC1(C)COCN1COC1CCCCC1
[1]
  T/C: 76 % of control
[2]
  T/C: 119 % of control
[3]
  T/C: 68 % of control
[4]
  T/C: 110 % of control

## COc1cccc2c1C(=O)c1c(O)c3c(c(O)c1C2=O)C[C@@](O)(C(C)=O)C[C@@H]3OC1CC(N)C(O)C(C)O1 (stereo partly specified)
dose: 0.5 mg/kg/injection, schedule: Q01DX010 (sc), vehicle: saline
  T/C: 45 % of control
[5]
  T/C: 12 % of control
[6]
  T/C: 19 % of control
dose: 4.0 mg/kg/injection, schedule: Q01DX010 (sc), vehicle: saline
  T/C: 21 % of control

## O=C1C(NCCO)=C(N2CC2)C(=O)C(NCCO)=C1N1CC1
dose: 0.5 mg/kg/injection, schedule: Q04DX003 (ip), vehicle: saline
  T/C: 117 % of control
dose: 1.5 mg/kg/injection, schedule: Q04DX003 (sc), vehicle: suspension in saline
  T/C: 203 % of control
dose: 2.0 mg/kg/injection, schedule: Q04DX003 (ip), vehicle: saline
  T/C: 61 % of control
dose: 4.0 mg/kg/injection, schedule: Q04DX003 (ip), vehicle: saline
  T/C: 77 % of control

## O=C1C2(Cl)C3(Cl)C4(Cl)C(Cl)(Cl)C5(Cl)[C@]3(Cl)C1(Cl)[C@]5(Cl)C24Cl (stereo partly specified)
dose: 37.5 mg/kg/injection, schedule: Q04DX003 (sc), vehicle: Klucel (hydroxypropylcellulose) (HPC)
  T/C: 118 % of control
dose: 75.0 mg/kg/injection, schedule: Q04DX003 (sc), vehicle: Klucel (hydroxypropylcellulose) (HPC)
  T/C: 95 % of control
dose: 150.0 mg/kg/injection, schedule: Q04DX003 (sc), vehicle: Klucel (hydroxypropylcellulose) (HPC)
  T/C: 78 % of control

— PubChem BioAssay AID264 (DTP/NCI, 2004)
